Test results reported in PubChem BioAssay (NCI).
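A five-concentration, 48-hour dose response in 96-well plates underlies each endpoint, interpolated linearly between surrounding concentrations. Abbreviation: GI50, concentration required for 50% inhibition of growth. Definition used: TGI = concentration required for complete inhibition of growth.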

Assays:
Assay in all cases: NCI-60 cell line screen, 48 h; in the data active = GI50 below about 0.43 µM; inactive = the rest
[1] = tested on: OVCAR-4 ovarian
[2] = tested on: MOLT-4 leukemia
[3] = tested on: HS 578T breast
[4] = tested on: LOX IMVI melanoma
[5] = tested on: A498 renal
[6] = tested on: CCRF-CEM leukemia
[7] = tested on: SK-OV-3 ovarian
[8] = tested on: MALME-3M melanoma
[9] = tested on: EKVX NSCLC
[10] = tested on: NCI-H522 lung
[11] = tested on: IGROV1 ovarian
[12] = tested on: NCI/ADR-RES ovarian
[13] = tested on: UACC-257 melanoma
[14] = tested on: HL-60(TB) leukemia
[15] = tested on: SF-539 CNS
[16] = tested on: SF-295 CNS
[17] = tested on: M14 melanoma
[18] = tested on: RXF 393 renal
[19] = tested on: DU-145 prostate
[20] = tested on: SK-MEL-28 melanoma
[21] = tested on: SNB-19 CNS
[22] = tested on: SK-MEL-2 melanoma
[23] = tested on: SNB-75 CNS
[24] = tested on: A549 NSCLC
[25] = tested on: UO-31 renal
[26] = tested on: CAKI-1 renal
[27] = tested on: RPMI-8226 leukemia
[28] = tested on: NCI-H23 lung
[29] = tested on: T-47D breast
[30] = tested on: SW-620 colon
[31] = tested on: OVCAR-5 ovarian
[32] = tested on: ACHN renal
[33] = tested on: HCT-116 colon
[34] = tested on: OVCAR-8 ovarian
[35] = tested on: K-562 leukemia
[36] = tested on: UACC-62 melanoma
[37] = tested on: SR leukemia
[38] = tested on: HT29 colon
[39] = tested on: NCI-H226 lung
[40] = tested on: U251 CNS
[41] = tested on: COLO 205 colon
[42] = tested on: TK-10 renal
[43] = tested on: 786-0 renal
[44] = tested on: HCT-15 colon
[45] = tested on: HOP-62 NSCLC
[46] = tested on: PC-3 prostate
[47] = tested on: BT-549 breast
[48] = tested on: MDA-MB-435
[49] = tested on: KM12 colon
[50] = tested on: HCC-2998 colon
[51] = tested on: SN12C renal
[52] = tested on: MDA-MB-231 breast
[53] = tested on: HOP-92 NSCLC
[54] = tested on: OVCAR-3 ovarian
[55] = tested on: SK-MEL-5 melanoma
[56] = tested on: NCI-H460 lung
[57] = tested on: MCF7 breast
[58] = tested on: SF-268 CNS

CC(=O)c1c(CBr)n([O-])c2ccccc2[n+]1=O
32.6 µM: TGI [18] | TGI [28]
34.5 µM: TGI [50]
33.1 µM: TGI [46]
71 µM: TGI [7]
40.7 µM: TGI [34]
25.5 µM: TGI [19]
25.8 µM: TGI [26]
22.6 µM: TGI [14] | TGI [55]
27.3 µM: TGI [51]
4.15 µM: TGI [30]
21.5 µM: TGI [47]
28.6 µM: TGI [36]
25 µM: TGI [52]
8.12 µM: TGI [6]
19 µM: TGI [25]
30.3 µM: TGI [9]
24 µM: TGI [15] | TGI [53]
7.67 µM: TGI [54]
25.6 µM: TGI [17] | TGI [48]
25.9 µM: TGI [38]
30.5 µM: TGI [27]
29.2 µM: TGI [11] | TGI [49]
30 µM: TGI [22]
8.03 µM: TGI [37]
20.4 µM: TGI [32]
44.4 µM: TGI [31]
2.89 µM: TGI [33]
17.4 µM: TGI [8]
29.9 µM: TGI [40]
28 µM: TGI [39]
13.2 µM: TGI [1]
23 µM: TGI [4]
16.6 µM: TGI [42]
43.8 µM: TGI [16]
29.6 µM: TGI [23]
27.7 µM: TGI [20] | TGI [44]
3.63 µM: TGI [41]
48.8 µM: TGI [3]
57 µM: TGI [24]
40 µM: TGI [21]
12.5 µM: TGI [35]
54.8 µM: TGI [5]
32.9 µM: TGI [13]
50.3 µM: TGI [12]
17.7 µM: TGI [43]
inactive: GI50 [1] 3.78 µM | GI50 [2] 4 µM | GI50 [3] 17.4 µM | GI50 [4] 10.8 µM | GI50 [5] 23.6 µM | GI50 [6] 2.14 µM | GI50 [7] 22.9 µM | GI50 [8] 4.48 µM | GI50 [9] 13.2 µM | GI50 [10] 2.93 µM | GI50 [11] 13.6 µM | GI50 [12] 19.5 µM | GI50 [13] 16.7 µM | GI50 [14] 5.49 µM | GI50 [15] 11.2 µM | GI50 [16] 19.8 µM | GI50 [17] 12.1 µM | GI50 [18] 15.3 µM | GI50 [19] 12.8 µM | GI50 [20] 13 µM | GI50 [21] 18.8 µM | GI50 [22] 14.4 µM | GI50 [23] 14.7 µM | GI50 [24] 23.1 µM | GI50 [25] 5.51 µM | GI50 [26] 12.9 µM | GI50 [27] 4.9 µM | GI50 [28] 15.7 µM | GI50 [29] 2.87 µM | GI50 [30] 2.04 µM | GI50 [31] 18.5 µM | GI50 [32] 8.12 µM | GI50 [33] 1.36 µM | GI50 [34] 18.1 µM | GI50 [35] 3.45 µM | GI50 [36] 14.9 µM | GI50 [37] 3.22 µM | GI50 [38] 8.34 µM | GI50 [39] 13.4 µM | GI50 [40] 16.2 µM | GI50 [41] 1.81 µM | GI50 [42] 5.44 µM | GI50 [43] 5.59 µM | GI50 [44] 13.6 µM | GI50 [45] 15.6 µM | GI50 [46] 15.5 µM | GI50 [47] 9.61 µM | GI50 [48] 12.5 µM | GI50 [49] 15 µM | GI50 [50] 17.6 µM | GI50 [51] 14.1 µM | GI50 [52] 12.2 µM | GI50 [53] 7.36 µM | GI50 [54] 3.14 µM | GI50 [55] 10.5 µM
29.7 µM: TGI [45]
8.91 µM: TGI [10]
15.7 µM: TGI [2]
11.4 µM: TGI [29]

COc1ccc(-c2cc(-c3cccn3C)c(C#N)c(N)n2)cc1OC
> 100 µM: TGI [1] | TGI [2] | TGI [3] | TGI [4] | TGI [5] | TGI [7] | TGI [8] | TGI [9] | TGI [10] | TGI [11] | TGI [12] | TGI [13] | TGI [14] | TGI [56] | TGI [57] | TGI [15] | TGI [16] | TGI [18] | TGI [19] | TGI [20] | TGI [21] | TGI [22] | TGI [24] | TGI [25] | TGI [26] | TGI [27] | TGI [28] | TGI [29] | TGI [30] | TGI [31] | TGI [32] | TGI [33] | TGI [34] | TGI [35] | TGI [36] | TGI [38] | TGI [39] | TGI [40] | TGI [41] | TGI [42] | TGI [43] | TGI [44] | TGI [46] | TGI [47] | TGI [48] | TGI [49] | TGI [50] | TGI [51] | TGI [52] | TGI [58] | TGI [53] | TGI [54] | TGI [55]
70.9 µM: TGI [23]
inactive: GI50 [1] 40.7 µM | GI50 [2] 46.8 µM | GI50 [3] > 100 µM | GI50 [4] > 100 µM | GI50 [5] 82.8 µM | GI50 [7] > 100 µM | GI50 [8] > 100 µM | GI50 [9] > 100 µM | GI50 [10] 40.4 µM | GI50 [11] 96 µM | GI50 [12] > 100 µM | GI50 [13] > 100 µM | GI50 [14] 19.6 µM | GI50 [56] > 100 µM | GI50 [57] 94.3 µM | GI50 [15] 82.4 µM | GI50 [16] > 100 µM | GI50 [18] > 100 µM | GI50 [19] 91.6 µM | GI50 [20] > 100 µM | GI50 [21] > 100 µM | GI50 [22] > 100 µM | GI50 [23] 21.1 µM | GI50 [24] > 100 µM | GI50 [25] 98.3 µM | GI50 [26] > 100 µM | GI50 [27] 38.5 µM | GI50 [28] > 100 µM | GI50 [29] > 100 µM | GI50 [30] > 100 µM | GI50 [31] > 100 µM | GI50 [32] > 100 µM | GI50 [33] 91.1 µM | GI50 [34] > 100 µM | GI50 [35] 55.6 µM | GI50 [36] 86.3 µM | GI50 [38] > 100 µM | GI50 [39] > 100 µM | GI50 [40] > 100 µM | GI50 [41] > 100 µM | GI50 [42] > 100 µM | GI50 [43] > 100 µM | GI50 [44] > 100 µM | GI50 [46] 99 µM | GI50 [47] 64 µM | GI50 [48] > 100 µM | GI50 [49] > 100 µM | GI50 [50] > 100 µM | GI50 [51] 66.9 µM | GI50 [52] 38.3 µM | GI50 [58] 82.4 µM | GI50 [53] 5.16 µM | GI50 [54] > 100 µM | GI50 [55] > 100 µM
